Reference: patent US20200390762A1, “METHOD OF TREATING HAND-FOOT SYNDROME AND SYMPTOMS ASSOCIATED THEREWITH” (GALDERMA S.A., priority 2014, published 2020)
Where a name gives a salt, the structure may show the parent alone.

System: murine UVB-induced epidermal hyperplasia model
Experiment: Murine UVB-induced epidermal hyperplasia model: epidermis thickness (H&E histology)
Assay type: in vivo, SKH1 mice
Settings: UVB 120 mJ/cm^2
Protocol: The back skin of the SKH1 mice was exposed to 120 mJ/cm^2 UVB using the Biospectra system equipped with UVB sunlamps with a maximum emission peak at 312 nm. Irradiations were performed under isoflurane gaseous anesthesia. Vehicle (PEG400/EtOH/PHY (30/20/50) p/p) or brimonidine at 0.2% or 2% was administered by topical route (100 μl) on a 10 cm^2-area on the back using a micropipette. The area is located on the upper part of the back to prevent the animals from licking themselves. […]
One hour after the third topical treatment and one hour before euthanasia, mice received an i.p. injection of 5-ethynyl-2′-deoxyuridine (EdU) at 100 mg/kg. […] For epidermal thickness, two sections per animal (7 μm) were stained in H&E. Skin histology and the epidermis thickness were analyzed using image analysis (mScope 3.9, Aurora mScope) on scanned slide pictures (NanoZoomer C9600-12, Hamamatsu Photonics K.K). […] Nuclei were also stained with DAPI (5 mg/ml) diluted in Vectashield Hard Set Mounting medium for fluorescence ref: 1-1400 Vector Laboratories). The number of keratinocyte stained with Alexa Fluor® 594 was counted from digital images (NanoZoomer C9600-12, Hamamatsu Photonics K.K) and the epidermis length of each section determined using an in-house dedicated tool. […]

Brc1c(NC2=NCCN2)ccc2nccnc12 [brimonidine tartrate, (5-Bromo-quinoxalin-6-yl)-(4,5-dihydro-1H-imidazol-2-yl)-amine (Brimonidine)]
inhibition of acanthosis (epidermis thickness) (0.2% topical, pre-treatment): no effect
inhibition of acanthosis (epidermis thickness) (2% topical, pre-treatment (1 h before UV irradiation, then twice more at 23 hours apart)): −23%
